Test results as given in PubChem BioAssay AID282 (DTP/NCI, 2004).
Where “and” joins values, the source holds several entries; their conditions need not be identical. Equal values may be shown once. Toxic doses and inconclusive results are not listed.

System: BDF1 mice, L1210 terephthalanilide-resistant leukemia ip, survival T/C
Assay: NCI In Vivo Anticancer Drug Screen. Data for tumor model L1210 Leukemia resistant to A Terephthalanilide; NSC 38280 (intraperitoneal) in B6D2F1 (BDF1) mice
Details: endpoint: mean survival time, higher = longer survival
Protocol: The antitumor activity of compounds was measured in mice bearing transplantable tumors. Survival or tumor size were measured and the results are expressed as the measurement made in the treated group (T) divided by the measurement made in the vehicle treated control group (C). The tumor model used in this assay is L1210 Leukemia resistant to A Terephthalanilide; NSC 38280 (intraperitoneal) in B6D2F1 (BDF1) mice

[1] = dose: 2.0 mg/kg/injection, schedule: Q01DX Z (ip), vehicle: carboxymethylcellulose (CMC)
[2] = dose: 4.0 mg/kg/injection, schedule: Q01DX Z (ip), vehicle: carboxymethylcellulose (CMC)
[3] = dose: 5.0 mg/kg/injection, schedule: Q01DX Z (ip), vehicle: carboxymethylcellulose (CMC)
[4] = dose: 12.5 mg/kg/injection, schedule: Q01DX Z (ip), vehicle: carboxymethylcellulose (CMC)
[5] = dose: 4.0 mg/kg/injection, schedule: Q01DX010 (ip), vehicle: saline
[6] = dose: 8.0 mg/kg/injection, schedule: Q01DX010 (ip), vehicle: saline
[7] = dose: 16.0 mg/kg/injection, schedule: Q01DX010 (ip), vehicle: saline
[8] = dose: 25.0 mg/kg/injection, schedule: Q01DX Z (ip), vehicle: carboxymethylcellulose (CMC)
[9] = dose: 32.0 mg/kg/injection, schedule: Q01DX010 (ip), vehicle: saline
[10] = dose: 3.0 mg/kg/injection, schedule: Q01DX010 (ip), vehicle: saline
[11] = dose: 6.0 mg/kg/injection, schedule: Q01DX010 (ip), vehicle: saline
[12] = dose: 50.0 mg/kg/injection, schedule: Q01DX Z (ip), vehicle: saline
[13] = dose: 75.0 mg/kg/injection, schedule: Q01DX Z (ip), vehicle: saline
[14] = dose: 62.5 mg/kg/injection, schedule: Q01DX010 (ip), vehicle: saline
[15] = dose: 125.0 mg/kg/injection, schedule: Q01DX010 (ip), vehicle: saline
[16] = dose: 250.0 mg/kg/injection, schedule: Q01DX010 (ip), vehicle: saline
[17] = dose: 500.0 mg/kg/injection, schedule: Q01DX010 (ip), vehicle: saline
[18] = dose: 100.0 mg/kg/injection, schedule: Q01DX Z (ip), vehicle: saline
[19] = dose: 200.0 mg/kg/injection, schedule: Q01DX Z (ip), vehicle: saline

## O=C(O)CCCc1ccc(N(CCCl)CCCl)cc1
[1]
  T/C: 101 % of control
dose: 3.0 mg/kg/injection, schedule: Q01DX Z (ip), vehicle: carboxymethylcellulose (CMC)
  T/C: 106 % of control
[2]
  T/C: 112 % of control
[3]
  T/C: 119 % of control
dose: 6.25 mg/kg/injection, schedule: Q01DX Z (ip), vehicle: carboxymethylcellulose (CMC)
  T/C: 115 % of control
[4]
  T/C: 118 % of control

## N#Cc1cn(C2OC(CO)C(O)C2O)c2ncnc(N)c12 (centres undefined)
dose: 31.3 micrograms/kg/injection, schedule: Q01DX010 (ip), vehicle: saline
  T/C: 95 % of control
dose: 62.5 micrograms/kg/injection, schedule: Q01DX010 (ip), vehicle: saline
  T/C: 99 % of control
dose: 125.0 micrograms/kg/injection, schedule: Q01DX010 (ip), vehicle: saline
  T/C: 97 % of control

## Nc1nc2n[nH]nc2c(=O)[nH]1
dose: 6.25 mg/kg/injection, schedule: Q01DX Z (ip), vehicle: water
  T/C: 106 % of control
dose: 12.5 mg/kg/injection, schedule: Q01DX Z (ip), vehicle: water
  T/C: 113 % of control
dose: 400.0 mg/kg/injection, schedule: Q01DX Z (ip), vehicle: water
  T/C: 95 % of control

## CC(CCC(C)OS(C)(=O)=O)OS(C)(=O)=O (centres undefined)
dose: 2.0 mg/kg/injection, schedule: Q01DX010 (ip), vehicle: saline
  T/C: 102 % of control
dose: 2.5 mg/kg/injection, schedule: Q01DX Z (ip), vehicle: carboxymethylcellulose (CMC)
  T/C: 94 % of control
[5]
  T/C: 95 % of control and 100 % of control
[3]
  T/C: 97 % of control
dose: 7.5 mg/kg/injection, schedule: Q01DX Z (ip), vehicle: carboxymethylcellulose (CMC)
  T/C: 103 % of control
[6]
  T/C: 100 % of control
dose: 10.0 mg/kg/injection, schedule: Q01DX Z (ip), vehicle: carboxymethylcellulose (CMC)
  T/C: 111 % of control
[4]
  T/C: 109 % of control
[7]
  T/C: 100 % of control and 112 % of control
[8]
  T/C: 88 % of control
[9]
  T/C: 110 % of control

## S=P(N1CC1)(N1CC1)N1CC1
dose: 0.75 mg/kg/injection, schedule: Q01DX010 (ip), vehicle: saline
  T/C: 97 % of control and 115 % of control
dose: 1.5 mg/kg/injection, schedule: Q01DX010 (ip), vehicle: saline
  T/C: 124 % of control and 105 % of control
[10]
  T/C: 118 % of control
[11]
  T/C: 94 % of control and 100 % of control

## O=C(Nc1ccc(C2=NCCCN2)cc1)c1ccc(C(=O)Nc2ccc(C3=NCCCN3)cc2)cc1
dose: 1.0 mg/kg/injection, schedule: Q01DX010 (ip), vehicle: other
  T/C: 113 % of control and 114 % of control
dose: 2.0 mg/kg/injection, schedule: Q01DX010 (ip), vehicle: other
  T/C: 116 % of control
dose: 4.0 mg/kg/injection, schedule: Q01DX010 (ip), vehicle: other
  T/C: 123 % of control and 120 % of control
dose: 8.0 mg/kg/injection, schedule: Q01DX010 (ip), vehicle: other
  T/C: 90 % of control and 95 % of control

## CC/C(=C(/CC)c1ccc(O)cc1)c1ccc(O)cc1
dose: 12.5 mg/kg/injection, schedule: Q01DX010 (sc), vehicle: steriod suspending solution
  T/C: 96 % of control and 102 % of control
dose: 25.0 mg/kg/injection, schedule: Q01DX010 (sc), vehicle: steriod suspending solution
  T/C: 89 % of control and 102 % of control
dose: 50.0 mg/kg/injection, schedule: Q01DX010 (sc), vehicle: steriod suspending solution
  T/C: 102 % of control and 103 % of control
dose: 100.0 mg/kg/injection, schedule: Q01DX010 (sc), vehicle: steriod suspending solution
  T/C: 96 % of control and 98 % of control

## O=c1c(O)cccc2cc(O)c(O)c(O)c12
dose: 25.0 mg/kg/injection, schedule: Q01DX010 (ip), vehicle: saline
  T/C: 98 % of control
dose: 50.0 mg/kg/injection, schedule: Q01DX010 (ip), vehicle: saline
  T/C: 93 % of control
dose: 100.0 mg/kg/injection, schedule: Q01DX010 (ip), vehicle: saline
  T/C: 89 % of control

## C1CN1c1nc(N2CC2)nc(N2CC2)n1
dose: 0.13 mg/kg/injection, schedule: Q01DX010 (ip), vehicle: saline
  T/C: 108 % of control
dose: 0.25 mg/kg/injection, schedule: Q01DX010 (ip), vehicle: saline
  T/C: 99 % of control
dose: 0.5 mg/kg/injection, schedule: Q01DX010 (ip), vehicle: saline
  T/C: 104 % of control

## CSc1ncnc2c1ncn2C1OC(CO)C(O)C1O (centres undefined)
[5]
  T/C: 105 % of control
dose: 5.5 mg/kg/injection, schedule: Q01DX Z (ip), vehicle: saline
  T/C: 117 % of control
[6]
  T/C: 116 % of control
dose: 15.0 mg/kg/injection, schedule: Q01DX010 (ip), vehicle: saline
  T/C: 151 % of control
[7]
  T/C: 122 % of control
dose: 20.0 mg/kg/injection, schedule: Q01DX010 (ip), vehicle: saline
  T/C: 162 % of control
dose: 37.5 mg/kg/injection, schedule: Q01DX Z (ip), vehicle: saline
  T/C: 154 % of control
[12]
  T/C: 101 % of control
[13]
  T/C: 88 % of control

## CN(C)C(=S)N=Nc1c(O)[nH]c2ccccc12
[8]
  T/C: 90 % of control
dose: 50.0 mg/kg/injection, schedule: Q01DX Z (ip), vehicle: carboxymethylcellulose (CMC)
  T/C: 98 % of control
dose: 100.0 mg/kg/injection, schedule: Q01DX Z (ip), vehicle: carboxymethylcellulose (CMC)
  T/C: 89 % of control

## OCC1OC(n2cnc3c(Cl)ncnc32)C(O)C1O (centres undefined)
[14]
  T/C: 90 % of control and 99 % of control
[15]
  T/C: 96 % of control and 101 % of control
[16]
  T/C: 97 % of control and 103 % of control
[17]
  T/C: 101 % of control and 106 % of control

## N=C(N)c1ccc(Nc2ccc(C(=N)N)cc2)cc1
[10]
  T/C: 94 % of control
[11]
  T/C: 91 % of control
dose: 7.5 mg/kg/injection, schedule: Q01DX Z (ip), vehicle: water
  T/C: 95 % of control
dose: 10.0 mg/kg/injection, schedule: Q01DX Z (ip), vehicle: water
  T/C: 95 % of control
dose: 12.0 mg/kg/injection, schedule: Q01DX010 (ip), vehicle: saline
  T/C: 95 % of control
dose: 15.0 mg/kg/injection, schedule: Q01DX Z (ip), vehicle: water
  T/C: 95 % of control
dose: 20.0 mg/kg/injection, schedule: Q01DX Z (ip), vehicle: water
  T/C: 103 % of control

## O=C1CCC(N2C(=O)c3ccccc3C2=O)C(=O)N1 (centres undefined)
dose: 31.3 mg/kg/injection, schedule: Q01DX010 (ip), vehicle: saline
  T/C: 94 % of control
[14]
  T/C: 96 % of control
[15]
  T/C: 94 % of control
[16]
  T/C: 100 % of control

## CN(C)c1ccc(/C=C/c2ccnc3ccccc23)cc1
[5]
  T/C: 96 % of control and 97 % of control
dose: 6.25 mg/kg/injection, schedule: Q01DX Z (ip), vehicle: saline
  T/C: 90 % of control
[6]
  T/C: 100 % of control and 101 % of control
dose: 12.5 mg/kg/injection, schedule: Q01DX Z (ip), vehicle: saline
  T/C: 100 % of control
[7]
  T/C: 99 % of control and 100 % of control
dose: 25.0 mg/kg/injection, schedule: Q01DX Z (ip), vehicle: saline
  T/C: 100 % of control
[9]
  T/C: 101 % of control
[12]
  T/C: 90 % of control
[13]
  T/C: 96 % of control and 100 % of control
[18]
  T/C: 94 % of control and 108 % of control
dose: 150.0 mg/kg/injection, schedule: Q01DX Z (ip), vehicle: saline
  T/C: 96 % of control and 102 % of control
[19]
  T/C: 94 % of control

## CCOC(N)=O
[12]
  T/C: 107 % of control
[18]
  T/C: 93 % of control
[15]
  T/C: 100 % of control and 103 % of control
[19]
  T/C: 106 % of control
[16]
  T/C: 100 % of control and 103 % of control
dose: 400.0 mg/kg/injection, schedule: Q01DX Z (ip), vehicle: saline
  T/C: 106 % of control
[17]
  T/C: 99 % of control and 101 % of control
dose: 500.0 mg/kg/injection, schedule: Q01DX Z (ip), vehicle: saline
  T/C: 96 % of control
dose: 1000.0 mg/kg/injection, schedule: Q01DX Z (ip), vehicle: saline
  T/C: 91 % of control

## N[C@@H](Cc1ccc(N(CCCl)CCCl)cc1)C(=O)O
[1]
  T/C: 252 % of control
[2]
  T/C: 155 % of control
dose: 8.0 mg/kg/injection, schedule: Q01DX Z (ip), vehicle: carboxymethylcellulose (CMC)
  T/C: 187 % of control
dose: 12.0 mg/kg/injection, schedule: Q01DX Z (ip), vehicle: carboxymethylcellulose (CMC)
  T/C: 169 % of control
dose: 18.0 mg/kg/injection, schedule: Q01DX Z (ip), vehicle: carboxymethylcellulose (CMC)
  T/C: 91 % of control
